Legend:
[1] = system: SNU-16 (Gastric Carcinoma); assay: Bliss excess, mean over the matrix (fraction); higher = more synergy
Method in brief: (§1)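 Cell lines in DMEM/F12 or RPMI with 10% FBS were plated in 1536-well plates, held 24 hours at 37°C, 5% CO2, then given two-drug dose matrices for 72 hours (DMSO typically 0.2%). Viability was read by CellTiter-Glo 2.0 luminescence and scaled as inhibition from 0 (vehicle wells) to 1 (blank wells). Combination Emax is the second-highest inhibition in the matrix; Bliss excess is observed combination effect minus expected EA + EB − EA·EB, EA and EB being single-agent effects.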

BPH-1 (Non-Cancerous) = assay: as above
Method in brief: as §1

BE2-M17 (Neuroblastoma) = assay: as above
Method in brief: as §1

[2] = system: SAS (Oral Cavity Carcinoma); assay: as above
Method in brief: as §1

[3] = system: L-428 (Hodgkin's Lymphoma); assay: as above
Method in brief: as §1

[4] = system: TGBC1TKB (Biliary Tract Carcinoma); assay: as above
Method in brief: as §1

[5] = system: KMRC-20 (Kidney Carcinoma); assay: as above
Method in brief: as §1

[6] = system: BFTC-909 (Kidney Carcinoma); assay: as above
Method in brief: as §1

[7] = system: HuH-7 (Hepatocellular Carcinoma); assay: as above
Method in brief: as §1

[8] = system: HeLa (Cervical Carcinoma); assay: as above
Method in brief: as §1

[9] = system: HuCCT1 (Biliary Tract Carcinoma); assay: as above
Method in brief: as §1

[10] = system: Detroit562 (Head and Neck Carcinoma); assay: as above
Method in brief: as §1

MPP-89 (Mesothelioma) = assay: as above
Method in brief: as §1

[11] = system: ESS-1 (Other Solid Carcinomas); assay: as above
Method in brief: as §1

[12] = system: NCI-H524 (Small Cell Lung Carcinoma); assay: as above
Method in brief: as §1

KS-1 (Glioblastoma) = assay: combination Emax (second highest fraction inhibited in the dose matrix, 72 h); higher = more inhibition; extreme values may be limits of the assay
Method in brief: as §1

[13] = system: BE-13 (T-Lymphoblastic Leukemia); assay: as above
Method in brief: as §1

[14] = system: OE21 (Esophageal Squamous Cell Carcinoma); assay: as above
Method in brief: as §1

[15] = system: TGBC1TKB (Biliary Tract Carcinoma); assay: as above
Method in brief: as §1

[16] = system: CAL-33 (Oral Cavity Carcinoma); assay: as above
Method in brief: as §1
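For Bliss excess, mean over the matrix in this document: after 72 h of two-drug dosing.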

SMILES: CC(=O)c1c(C)c2cnc(Nc3ccc(N4CCNCC4)cn3)nc2n(C2CCCC2)c1=O [Palbociclib] + Cn1cnc2c(F)c(Nc3ccc(Br)cc3Cl)c(C(=O)NOCCO)cc21 [Selumetinib] (first compound max 10 µM, 7x7, partner max 10 µM)
- Bliss excess [1]: 0.0339
- Bliss excess (BPH-1 (Non-Cancerous)): -0.0755
- Bliss excess (BE2-M17 (Neuroblastoma)): -0.0339
- Bliss excess [2]: -0.0084
- Bliss excess [3]: -0.0083
- Bliss excess [4]: -0.0251
- Bliss excess [5]: -0.0534
- Bliss excess [6]: 0.0424
- Bliss excess [7]: -0.0584
- Bliss excess [8]: -0.0499
- Bliss excess [9]: 0.0282
- Bliss excess [10]: -0.0041
- Bliss excess (MPP-89 (Mesothelioma)): -0.0394
- Bliss excess [11]: -0.0097
- Bliss excess [12]: -0.0403
- combination Emax (KS-1 (Glioblastoma)): 0.438
- combination Emax [13]: 0.691
- combination Emax [14]: 0.54
- combination Emax [15]: 0.167
- combination Emax [16]: 0.382

SMILES: COc1cccc(OCCCN)c1-c1cc(Nc2cnc(C#N)cn2)n[nH]1 [Prexasertib] + C=CCn1c(=O)c2cnc(Nc3ccc(N4CCN(C)CC4)cc3)nc2n1-c1cccc(C(C)(C)O)n1 [AZD1775] (first compound max 1 µM, partner max 1 µM)
- Bliss excess [1]: 0.0756
- Bliss excess (BPH-1 (Non-Cancerous)): 0.115
- Bliss excess (BE2-M17 (Neuroblastoma)): 0.098
- Bliss excess [2]: 0.0405
- Bliss excess [3]: 0.0109
- Bliss excess [4]: 0.0068
- Bliss excess [5]: -0.0104
- Bliss excess [6]: 0.11
- Bliss excess [7]: 0.0469
- Bliss excess [8]: 0.0651
- Bliss excess [9]: 0.0261
- Bliss excess [10]: 0.0416
- Bliss excess (MPP-89 (Mesothelioma)): 0.0912
- Bliss excess [11]: 0.0299
- Bliss excess [12]: 0.053
- combination Emax (KS-1 (Glioblastoma)): 0.581
- combination Emax [13]: 1
- combination Emax [14]: 0.733
- combination Emax [15]: 0.446
- combination Emax [16]: 0.916

SMILES: COc1cccc(OCCCN)c1-c1cc(Nc2cnc(C#N)cn2)n[nH]1 [Prexasertib] + CCc1c2c(nc3ccc(O)cc13)-c1cc3c(c(=O)n1C2)COC(=O)[C@]3(O)CC [SN-38] (first compound max 1 µM, 7x7, partner max 0.3 µM)
- Bliss excess [1]: 0.0333
- Bliss excess (BPH-1 (Non-Cancerous)): 0.011
- Bliss excess (BE2-M17 (Neuroblastoma)): 0.0576
- Bliss excess [2]: -0.0246
- Bliss excess [3]: -0.0235
- Bliss excess [4]: 0.0365
- Bliss excess [5]: -0.0215
- Bliss excess [6]: 0.0075
- Bliss excess [7]: 0.122
- Bliss excess [8]: 0.0837
- Bliss excess [9]: -0.0044
- Bliss excess [10]: 0.055
- Bliss excess (MPP-89 (Mesothelioma)): 0.0256
- Bliss excess [11]: -0.0183
- Bliss excess [12]: 0.0554
- combination Emax (KS-1 (Glioblastoma)): 0.536
- combination Emax [13]: 1
- combination Emax [14]: 0.813
- combination Emax [15]: 0.632
- combination Emax [16]: 0.957

SMILES: COc1cccc(OCCCN)c1-c1cc(Nc2cnc(C#N)cn2)n[nH]1 [Prexasertib] + CN(C)CCCOc1ccc(-c2ccc3ncc4c(c3c2)n(C2CCOCC2)c(=O)n4C)cn1 [AZD0156] (first compound max 1 µM, 7x7, partner max 1 µM)
- Bliss excess [1]: -0.0135
- Bliss excess (BPH-1 (Non-Cancerous)): 0.0118
- Bliss excess (BE2-M17 (Neuroblastoma)): -0.0185
- Bliss excess [2]: 0.0109
- Bliss excess [3]: -0.0144
- Bliss excess [4]: -0.0053
- Bliss excess [5]: -0.0382
- Bliss excess [6]: -0.0397
- Bliss excess [7]: -0.0335
- Bliss excess [8]: 0.0079
- Bliss excess [9]: -0.0357
- Bliss excess [10]: -0.014
- Bliss excess (MPP-89 (Mesothelioma)): -0.0242
- Bliss excess [11]: -0.0668
- Bliss excess [12]: -0.0435
- combination Emax (KS-1 (Glioblastoma)): 0.581
- combination Emax [13]: 0.965
- combination Emax [14]: 0.726
- combination Emax [15]: 0.361
- combination Emax [16]: 0.807

SMILES: COc1cccc(OCCCN)c1-c1cc(Nc2cnc(C#N)cn2)n[nH]1 [Prexasertib] + C[C@@H]1COCCN1C2=NC(=NC(=C2)C3(CC3)[S@](=N)(=O)C)C4=C5C=CNC5=NC=C4 [AZD6738] (first compound max 1 µM, 7x7, partner max 10 µM)
- Bliss excess [1]: -0.0058
- Bliss excess (BPH-1 (Non-Cancerous)): -0.015
- Bliss excess (BE2-M17 (Neuroblastoma)): -0.0172
- Bliss excess [2]: 0.0203
- Bliss excess [3]: -0.0418
- Bliss excess [4]: -0.0064
- Bliss excess [5]: 0.0013
- Bliss excess [6]: 0.0417
- Bliss excess [7]: 0.0392
- Bliss excess [8]: 0.005
- Bliss excess [9]: -0.0108
- Bliss excess [10]: -0.0311
- Bliss excess (MPP-89 (Mesothelioma)): -0.0232
- Bliss excess [11]: 0.0056
- Bliss excess [12]: -0.0122
- combination Emax (KS-1 (Glioblastoma)): 0.581
- combination Emax [13]: 0.967
- combination Emax [14]: 0.745
- combination Emax [15]: 0.552
- combination Emax [16]: 0.916

SMILES: COc1cccc(OCCCN)c1-c1cc(Nc2cnc(C#N)cn2)n[nH]1 [Prexasertib] + Cc1cc2ncnn2cc1Nc1ncc2c(n1)n(C1CCOCC1)c(=O)n2C [AZD7648] (first compound max 1 µM, 7x7, partner max 10 µM)
- Bliss excess [1]: -0.0059
- Bliss excess (BPH-1 (Non-Cancerous)): 0.0161
- Bliss excess (BE2-M17 (Neuroblastoma)): 0.0047
- Bliss excess [2]: -0.0247
- Bliss excess [3]: -0.0165
- Bliss excess [4]: -0.0747
- Bliss excess [5]: -0.0474
- Bliss excess [6]: 0.0182
- Bliss excess [7]: -0.0199
- Bliss excess [8]: 0.0133
- Bliss excess [9]: -0.0259
- Bliss excess [10]: -0.0342
- Bliss excess (MPP-89 (Mesothelioma)): -0.0104
- Bliss excess [11]: -0.0296
- Bliss excess [12]: -0.0204
- combination Emax (KS-1 (Glioblastoma)): 0.546
- combination Emax [13]: 0.952
- combination Emax [14]: 0.788
- combination Emax [15]: 0.483
- combination Emax [16]: 0.816

SMILES: COc1cccc(OCCCN)c1-c1cc(Nc2cnc(C#N)cn2)n[nH]1 [Prexasertib] + O=C(c1cc(Cc2n[nH]c(=O)c3ccccc23)ccc1F)N1CCN(C(=O)C2CC2)CC1 [Olaparib] (first compound max 1 µM, 7x7, partner max 10 µM)
- Bliss excess [1]: -0.0417
- Bliss excess (BPH-1 (Non-Cancerous)): 0.0266
- Bliss excess (BE2-M17 (Neuroblastoma)): -0.0225
- Bliss excess [2]: -0.0104
- Bliss excess [3]: -0.0418
- Bliss excess [4]: -0.0767
- Bliss excess [5]: -0.0735
- Bliss excess [6]: -0.0109
- Bliss excess [7]: -0.0527
- Bliss excess [8]: -0.0483
- Bliss excess [9]: -0.0824
- Bliss excess [10]: -0.0467
- Bliss excess (MPP-89 (Mesothelioma)): -0.0227
- Bliss excess [11]: 0.0054
- Bliss excess [12]: -0.0666
- combination Emax (KS-1 (Glioblastoma)): 0.628
- combination Emax [13]: 0.978
- combination Emax [14]: 0.678
- combination Emax [15]: 0.446
- combination Emax [16]: 0.833
